Laboratory results as given in US9504729B2, “Antiangiogenic small molecules and methods of use” (The United States of America, as represented by the …, priority 2009, dated 2016).
Read-outs that look alike come from different tables or passages of the source.

Legend:
[1] = system: PAE; assay: Apoptosis in PAE; type: cell-based, porcine
[2] = system: PAE cells
[3] = system: endothelial cells; assay: Primary screening: cell-based growth HTS and tube formation HTS (bioactivity class)
Method: All assays were performed in clear bottom black 96-well plates. The plates were always arranged to include a column for negative controls (column 1), a column for positive controls (column 12), and 10 columns for evaluation of 80 compounds. In order to increase stringency and avoid false positives in the HTS assays, all compounds were tested at a low final concentration of 1 μM.
In summary, 1,000 cells/well were seeded in the 96-well plates described above. Cells in columns 2-12 were seeded in 10% FBS and cells in column 1 (negative control) were seeded in 0% FBS. Small molecules (80 per plate) were added in columns 2-11 at a final concentration of 1 μM (both positive and negative controls were exposed to the same percentage of DMSO in wells containing test compounds). The fluorescence emitted by every well was measured spectrophotometrically (Infinite M200, TECAN®, Mannedorf, Switzerland) every 24 hours for 5-7 days.
In summary, 20,000 cells/well were seeded on top of 50 μl of pre-gelled GELTREX® gel matrix (Invitrogen, Carlsbad, Calif.). All cells were seeded in 10% FBS. […] Small molecules (80 per plate) were added to columns 2-11 at a final concentration of 1 μM (both positive and negative controls were exposed to the same percentage of DMSO in wells containing test compounds). Plates were incubated for 5-7 hours and automatically imaged with the help of an epifluorescence microscope (Axiovert® 200M, Zeiss) equipped with a motorized stage and AxioVision® (Zeiss) software.
For hit detection, a stringent threshold (sigma 3.5) was applied to avoid false positives.

[4] = system: PAE cells; assay: Growth dose response (IC50) in PAE; type: cell-based, porcine; details: read-out: Growth IC50 (M) in PAE
Excerpt: FIG. 6: Dose response curves were constructed for all the SMs of interest using PAE cells. Data were fitted to non-linear sigmoid curves using GraphPad Prism (GraphPad Software, Inc., La Jolla, Calif.).
Dose response curves were constructed for all the SM of interest using PAE cells. Data were fitted to non-linear sigmoid curves using GraphPad Prism (GraphPad software, Inc.).

[5] = system: PAE cells; assay: Fluorescence-release cytotoxicity assay; details: endothelial cells
[6] = in vitro; details: pig
[7] = system: SK-ML-1 tumors; assay: SK-ML-1 tumor xenograft; details: 100 μl of 10 μM IP, three times a week for four weeks
[8] = target: KDR(VEGFR2) (Homo sapiens, UniProt P35968); assay: SelectScreen kinase activity profiling, KDR(VEGFR2); type: biochemical; details: VEGFR2 receptor
KDR(VEGFR2), sequence (P35968 20-1356): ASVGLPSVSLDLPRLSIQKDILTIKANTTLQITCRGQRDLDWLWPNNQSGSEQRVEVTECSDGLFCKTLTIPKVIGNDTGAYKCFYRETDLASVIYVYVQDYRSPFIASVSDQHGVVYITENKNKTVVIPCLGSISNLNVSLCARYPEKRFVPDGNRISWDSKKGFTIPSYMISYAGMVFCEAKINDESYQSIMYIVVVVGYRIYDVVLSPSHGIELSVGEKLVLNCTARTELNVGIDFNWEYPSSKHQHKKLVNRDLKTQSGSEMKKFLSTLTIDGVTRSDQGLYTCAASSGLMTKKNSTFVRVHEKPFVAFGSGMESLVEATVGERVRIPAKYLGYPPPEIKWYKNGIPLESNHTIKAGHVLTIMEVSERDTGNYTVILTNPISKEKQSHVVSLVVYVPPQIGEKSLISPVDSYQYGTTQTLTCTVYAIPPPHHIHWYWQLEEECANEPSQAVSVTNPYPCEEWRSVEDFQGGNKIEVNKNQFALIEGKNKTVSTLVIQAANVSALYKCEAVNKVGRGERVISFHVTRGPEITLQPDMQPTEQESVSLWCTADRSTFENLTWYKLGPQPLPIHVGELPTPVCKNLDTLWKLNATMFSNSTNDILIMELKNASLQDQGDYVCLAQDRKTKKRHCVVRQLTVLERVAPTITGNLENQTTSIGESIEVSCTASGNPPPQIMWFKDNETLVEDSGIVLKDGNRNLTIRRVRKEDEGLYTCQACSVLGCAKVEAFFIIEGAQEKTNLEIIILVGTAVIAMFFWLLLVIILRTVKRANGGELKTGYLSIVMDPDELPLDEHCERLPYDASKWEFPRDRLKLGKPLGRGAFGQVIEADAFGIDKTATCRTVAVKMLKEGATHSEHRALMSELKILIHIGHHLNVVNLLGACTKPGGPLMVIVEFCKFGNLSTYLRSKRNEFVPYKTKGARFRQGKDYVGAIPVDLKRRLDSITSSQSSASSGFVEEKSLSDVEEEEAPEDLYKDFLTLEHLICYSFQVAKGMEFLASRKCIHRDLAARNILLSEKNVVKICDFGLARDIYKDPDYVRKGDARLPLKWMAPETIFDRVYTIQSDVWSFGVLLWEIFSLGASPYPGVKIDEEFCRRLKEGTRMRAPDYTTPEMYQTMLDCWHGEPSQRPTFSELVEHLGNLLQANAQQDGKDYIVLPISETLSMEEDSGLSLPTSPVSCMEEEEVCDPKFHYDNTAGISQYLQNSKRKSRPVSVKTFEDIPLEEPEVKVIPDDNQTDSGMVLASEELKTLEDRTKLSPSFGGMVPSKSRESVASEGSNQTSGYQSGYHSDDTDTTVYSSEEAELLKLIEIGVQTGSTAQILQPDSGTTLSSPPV
Excerpt: To characterize the RTK inhibitory activity of the antiangiogenic SMs described herein, 36 compounds were chosen and screened using Invitrogen's SelectScreen® kinase activity profiling service (described on-line at tools.invitrogen.com/content.cfm?pageid=10413#selection). VEGFR1 and FGFR2 RTK inhibitory activities were studied. […] Overall, a small minority of the SMs tested had any substantial kinase inhibitory activity. This observation supports a mechanism of antiangiogenic action other than RTK inhibition for most of the SMs described herein.

[9] = system: A549 tumors; details: positive control; cited from earlier work
[10] = system: SK-ML-1 tumors; details: positive control; cited from earlier work

Q: With “2,5-dibromo-3,6-dimethylbenzene-1,4- diol; 2,5-dibromo-3,6- dimethylcyclohexa-2,5-diene-1,4-dione [Compound 72]” as the compound, how does the “Apoptosis PAE (RFU)” value [1] read?
A: 1.368 RFU

Q: And the “Cytotoxicity (%)” value [2]?
A: 13.88%

Q: And the Bioactivity [3]?
A: 3

Q: What about the IC50 [4] of the same compound?
A: 1.39e-10 M

Q: Which results are given for `CC1(C)N=C(N)N=C(N)N1CCCCc1ccccc1.Cl` [Compound 11, 6,6-dimethyl-1-(4-phenylbutyl)-1,3,5-triazine-2,4-diamine hydrochloride]?
A: IC50 ([4]; Sus scrofa, PAE cells): 2.37e-11 M; cytotoxicity (in words) [5]: cytotoxic; cytotoxicity [6]: 18.7%

Q: For `COc1ccc(CC2C(=O)NC(C)C(=O)N(C)C3Cc4ccc(cc4)Oc4cc(ccc4O)CC(C(=O)NC(C)C(=O)NC(C)C(=O)N2C)N(C)C3=O)cc1` (stereo not drawn) [Compound 58, Deoxybouvardin or 24-hydroxy-10-(4-methoxybenzyl)-4,7,9,13,15,29-hexamethyl-22-oxa-3,6,9,12,15,29-hexaazatetracyclo-[14.12.2.2~18,21~.1~23,27~]tritriaconta-18,20,23(31),24,26,32-hexaene-2,5,8,11,14,30-hexone], which “type of inhibition (endothelial cell growth and/or tube formation)” value (“type of inhibition” below) [3] is on record?
A: tube formation

Q: What about the cytotoxicity [6] of the same compound?
A: 11.2%

Q: What about the “inhibition of tumor growth, SK-ML-1 xenograft” value (“inhibition of tumor growth” below) [7] of the same compound?
A: potencies similar to AVASTIN®

Q: With `COc1ccc(CC2C(=O)NC(C)C(=O)N(C)C3C(=O)N(C)C(Cc4ccc(O)c(c4)Oc4ccc(cc4)C3O)C(=O)NC(C)C(=O)NC(C)C(=O)N2C)cc1` (stereo not drawn) [Compound 59, Bouvardin or 17,24-dihydroxy-10-(4-methoxybenzyl)-4,7,9,13,15,29-hexamethyl-22-oxa-3,6,9,12,15,29-hexaazatetracyclo-[14.12.2.2-18,21~.1~23,27~]tritriaconta-18,20,23(31),24,26,32-hexaene-2,5,8,11,14,30-hexone] as the compound, how does the “Apoptosis PAE (RFU)” value [1] read?
A: 6.215 RFU

Q: What about the “Cytotoxicity (%)” value [2] of the same compound?
A: 9.794%

Q: What about the Bioactivity [3] of the same compound?
A: 2

Q: Which “type of inhibition” value ([3]; 1 μM) does the source give for `COc1ccc(-c2csc3c2-n2cccc2C3=O)cc1` [Compound 63, 3-(4-methoxyphenyl)thieno[2,3-b]pyrrolizin-8-one] here?
A: inhibited both endothelial cell growth and tube formation

Q: And the IC50 ([4]; Sus scrofa, PAE cells)?
A: 1.55e-11 M

Q: What about the “cytotoxicity (in words)” value [5] of the same compound?
A: without cytotoxicity

Q: And the cytotoxicity [6]?
A: 7.48%

Q: Which “type of inhibition” value ([3]; 1 μM) does the source give for `Cl.O=C1C(=Cc2ccccc2)C(NC2CCCCC2)c2ccccc21` (stereo not drawn) [Compound 67, 2-benzylidene-3-(cyclohexylamino)-3H-inden-1-one chloride] here?
A: inhibited both endothelial cell growth and tube formation

Q: And the “type of inhibition” value ([3]; 1 μM, listed as NSC 150117)?
A: tube formation+growth

Q: What about the IC50 ([4]; Sus scrofa, PAE cells) of the same compound?
A: 9.16e-11 M

Q: What about the “cytotoxicity (in words)” value [5] of the same compound?
A: without cytotoxicity

Q: And the cytotoxicity [6]?
A: 7.78%

Q: What about the “inhibition of tumor growth” value [7] of the same compound?
A: potencies similar to AVASTIN®

Q: For `O=C(c1no[n+]([O-])c1C(=O)c1csc2ccccc12)c1csc2ccccc12` [Compound 68, [4-(1-benzothiophene-3-carbonyl)-2-oxido-1,2,5-oxadiazol-2-ium-3-yl]-(1-benzothiophen-3-yl)methanone], which IC50 ([4]; Sus scrofa, PAE cells) is on record?
A: 1.4e-10 M

Q: What about the “cytotoxicity (in words)” value [5] of the same compound?
A: cytotoxic

Q: What about the cytotoxicity [6] of the same compound?
A: 19.1%

Q: Which “RTK inhibitory activity (in words)” value [8] does the source give for `O=[As](O)(O)c1ccc(Cc2ccc([As](=O)(O)O)cc2)cc1` [Compound 69, [4-[(4-arsonophenyl)methyl]phenyl]arsonic acid] here?
A: showed RTK inhibitory activity

Q: And the “cytotoxicity (in words)” value [2]?
A: without cytotoxicity

Q: And the “type of inhibition” value [3]?
A: inhibited both endothelial cell growth and tube formation

Q: What about the IC50 ([4]; Sus scrofa, PAE) of the same compound?
A: 3.84e-10 M

Q: What about the cytotoxicity [6] of the same compound?
A: 8.26%

Q: And the “inhibition of tumor growth” value [7]?
A: potencies similar to AVASTIN®

Q: For “AVASTIN®: monoclonal antibody directed against an isoform of VEGF, marketed under the trade name Avastin®; known antiangiogenic drug, positive control”, which “inhibition of growth of A549 (previously shown)” value [9] is on record?
A: significantly inhibit

Q: What about the “inhibition of growth of SK-ML-1 (previously shown)” value [10] of the same compound?
A: significantly inhibit

Q: What does the source list for “bromocopper; (dipyridin-2- ylmethylideneamino)- [methylsulfanyl(sulfoniumylidene) methyl]azanide [Compound 70]”?
A: Apoptosis PAE (RFU) ([1]; PAE cells): 1.021 RFU; Cytotoxicity (%) [2]: 38.53%; Bioactivity ([3]; HTS at 1 μM final concentration): 3; IC50 ([4]; PAE cells): 6.11e-12 M; cytotoxicity (in words) [5]: cytotoxic

Q: With “zinc; 8-hydroxy-3,4,4a,5,6,7,8,8a- octahydro-2H-quinolin-1-ide-5-sulfonic acid; 5-sulfo-1,2-dihydroquinolin-8-olate [Compound 61]” as the compound, how does the “Apoptosis PAE (RFU)” value [1] read?
A: 1.841 RFU

Q: And the “Cytotoxicity (%)” value [2]?
A: 7.901%

Q: And the Bioactivity [3]?
A: 2
